Measured values reported in ChEMBL document CHEMBL1201862, “PubChem BioAssay data set” (2004).
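Assay format: 96-well plates, 48-hour exposure. GI50 = concentration required for 50% inhibition of growth.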 Active and inactive are the calls of the source. No stated cut-off is given here; in the data, active = GI50 up to about 1.1 µM and inactive = higher.

What was measured:
Test in all cases: NCI-60 cell line screen, 48 h
786-0 = tested on: 786-0
A498 = tested on: A498
A549 = tested on: A549
ACHN = tested on: ACHN
BT-549 = tested on: BT-549
CAKI-1 = tested on: CAKI-1
HOP-92 = tested on: HOP-92
K562 = tested on: K562
M14 = tested on: M14
MDA-N = tested on: MDA-N
MOLT-4 = tested on: MOLT-4
Malme-3M = tested on: Malme-3M
OVCAR-5 = tested on: OVCAR-5
PC-3 = tested on: PC-3
SK-MEL-28 = tested on: SK-MEL-28
SK-MEL-2 = tested on: SK-MEL-2
SK-MEL-5 = tested on: SK-MEL-5
SNB-19 = tested on: SNB-19
SNB-75 = tested on: SNB-75
KM-20L2 = tested on: KM-20L2

Measured: GI50

Nc1c(C(=O)Nc2ccc([As](=O)(O)O)cc2)cnc2nnnn12
inactive: 786-0 > 100 µM | A498 > 100 µM | A549 > 100 µM | ACHN > 100 µM | BT-549 > 100 µM | CAKI-1 > 100 µM | HOP-92 > 100 µM | K562 > 100 µM | M14 > 100 µM | MDA-N > 100 µM | MOLT-4 > 100 µM | Malme-3M > 100 µM | OVCAR-5 > 100 µM | PC-3 > 100 µM | SK-MEL-28 > 100 µM | SK-MEL-2 > 100 µM | SK-MEL-5 > 100 µM | SNB-19 > 100 µM | SNB-75 > 100 µM

CC1=C/C(=C2/N=C(N(C)C)SS2)C(C)=N1.[O-][Cl+3]([O-])([O-])O
inactive: 786-0 > 100 µM | A498 > 100 µM | A549 > 100 µM | ACHN > 100 µM | CAKI-1 > 100 µM | HOP-92 > 100 µM | K562 42.1 µM | KM-20L2 > 100 µM | M14 > 100 µM | MOLT-4 > 100 µM | Malme-3M 21.8 µM | OVCAR-5 > 100 µM | SK-MEL-28 > 100 µM | SNB-19 > 100 µM | SNB-75 > 100 µM

N=C(N)NS(=O)(=O)c1ccc(NC(=O)c2cccn3c(=O)c4ccccc4nc23)cc1
inactive: 786-0 > 100 µM | A498 > 100 µM | A549 45.6 µM | ACHN 81.8 µM | CAKI-1 > 100 µM | HOP-92 > 100 µM | K562 32.3 µM | KM-20L2 13.6 µM | M14 60.8 µM | MOLT-4 25.5 µM | Malme-3M > 100 µM | SK-MEL-28 91 µM | SK-MEL-5 27 µM | SNB-19 > 100 µM | SNB-75 > 100 µM

COc1ccc(OC)c2c(C(=O)O)c(Cc3ccccc3)ccc12
inactive: 786-0 > 100 µM | A498 > 100 µM | A549 > 100 µM | ACHN > 100 µM | CAKI-1 > 100 µM | K562 > 100 µM | KM-20L2 > 100 µM | M14 > 100 µM | MOLT-4 > 100 µM | Malme-3M > 100 µM | OVCAR-5 > 100 µM | SK-MEL-28 > 100 µM | SK-MEL-2 > 100 µM | SK-MEL-5 > 100 µM | SNB-19 > 100 µM | SNB-75 > 100 µM

N#CC(C#N)=Cc1c[nH]c(=O)[nH]c1=O
inactive: 786-0 > 100 µM | A498 > 100 µM | A549 > 100 µM | ACHN > 100 µM | BT-549 > 100 µM | CAKI-1 > 100 µM | HOP-92 > 100 µM | K562 > 100 µM | M14 > 100 µM | MDA-N > 100 µM | MOLT-4 43.1 µM | Malme-3M 6.35 µM | OVCAR-5 > 100 µM | PC-3 > 100 µM | SK-MEL-28 > 100 µM | SK-MEL-2 > 100 µM | SK-MEL-5 > 100 µM | SNB-19 > 100 µM | SNB-75 > 100 µM

C(=C\c1cc(CCc2nc3ccccc3[nH]2)n[nH]1)/c1ccccc1
inactive: 786-0 > 100 µM | A498 > 100 µM | A549 > 100 µM | ACHN > 100 µM | CAKI-1 > 100 µM | HOP-92 > 100 µM | K562 > 100 µM | KM-20L2 > 100 µM | M14 > 100 µM | MOLT-4 > 100 µM | Malme-3M > 100 µM | OVCAR-5 > 100 µM | SK-MEL-28 > 100 µM | SK-MEL-5 > 100 µM | SNB-19 > 100 µM | SNB-75 > 100 µM

CCN(CC)CCC(=O)/C=C/c1ccc(C)cc1
inactive: 786-0 11.9 µM | A498 11.2 µM | A549 18.8 µM | ACHN 14.4 µM | CAKI-1 1.83 µM | HOP-92 19.2 µM | K562 19.5 µM | KM-20L2 15.6 µM | M14 13.7 µM | MOLT-4 11.7 µM | Malme-3M 19.3 µM | OVCAR-5 18.6 µM | SK-MEL-28 14.8 µM | SK-MEL-5 16.6 µM | SNB-19 19.3 µM | SNB-75 15.6 µM

N#CCCN(CCC#N)CCN(CCN(CCC#N)CCC#N)CCN(CCC#N)CCC#N
inactive: 786-0 > 100 µM | A498 > 100 µM | A549 > 100 µM | ACHN > 100 µM | BT-549 > 100 µM | CAKI-1 > 100 µM | HOP-92 > 100 µM | K562 > 100 µM | M14 > 100 µM | MDA-N > 100 µM | MOLT-4 > 100 µM | Malme-3M > 100 µM | OVCAR-5 > 100 µM | PC-3 > 100 µM | SK-MEL-28 > 100 µM | SK-MEL-2 > 100 µM | SK-MEL-5 > 100 µM | SNB-19 > 100 µM | SNB-75 > 100 µM

CCOC(=O)C1=CN/C(=C(/C)C(=O)OC)SC1C(=O)OCC (centres undefined)
inactive: 786-0 > 100 µM | A498 > 100 µM | A549 > 100 µM | ACHN > 100 µM | BT-549 > 90.6 µM | CAKI-1 > 100 µM | HOP-92 > 76.9 µM | K562 17.5 µM | M14 > 100 µM | MDA-N > 100 µM | MOLT-4 25.6 µM | Malme-3M > 100 µM | OVCAR-5 > 100 µM | PC-3 69.7 µM | SK-MEL-28 > 100 µM | SK-MEL-2 > 100 µM | SK-MEL-5 58.3 µM | SNB-19 98.2 µM | SNB-75 > 100 µM

O=c1cc(-c2ccccc2)[nH]c2c(Cl)cccc12
inactive: 786-0 26.3 µM | A498 14.2 µM | A549 7.98 µM | ACHN 78 µM | K562 2.77 µM | KM-20L2 14.4 µM | M14 9.31 µM | MOLT-4 8.34 µM | Malme-3M 64.9 µM | SK-MEL-28 > 100 µM | SK-MEL-2 6.97 µM | SK-MEL-5 5.86 µM | SNB-19 20.5 µM | SNB-75 13.8 µM

Cc1cccc(NC(=O)O/N=C(\Cl)C(C)C)c1
inactive: 786-0 2 µM | A498 18.5 µM | A549 20.5 µM | ACHN 2.02 µM | BT-549 5.45 µM | CAKI-1 1.74 µM | HOP-92 1.66 µM | K562 2.31 µM | M14 4.58 µM | MDA-N 10.5 µM | MOLT-4 2.15 µM | Malme-3M 2.19 µM | OVCAR-5 19.4 µM | PC-3 16.7 µM | SK-MEL-28 7.19 µM | SK-MEL-2 17.7 µM | SK-MEL-5 16.4 µM | SNB-19 20.3 µM | SNB-75 18.1 µM

COc1cc2c(cc1OC)C1(c3ccccc3)CN(C2)Cc2cc(OC)c(OC)cc21
inactive: 786-0 31.6 µM | A498 35.2 µM | A549 46.3 µM | ACHN 54.1 µM | BT-549 29.8 µM | CAKI-1 40 µM | HOP-92 32.6 µM | K562 29.1 µM | M14 23.9 µM | MDA-N > 100 µM | MOLT-4 25.5 µM | Malme-3M 36.4 µM | OVCAR-5 35.6 µM | PC-3 31.3 µM | SK-MEL-28 > 100 µM | SK-MEL-2 25.7 µM | SK-MEL-5 18.6 µM | SNB-19 44.5 µM | SNB-75 27.9 µM

NC(=O)CCSC(CC(=O)c1ccc(Cl)cc1)c1ccc(Cl)cc1 (centres undefined)
inactive: 786-0 30 µM | A498 22.5 µM | A549 29.9 µM | ACHN 34.7 µM | BT-549 36.1 µM | CAKI-1 12.4 µM | HOP-92 15 µM | K562 7.1 µM | M14 27.2 µM | MDA-N 16.7 µM | MOLT-4 10.4 µM | Malme-3M 24.9 µM | OVCAR-5 32.7 µM | PC-3 34.6 µM | SK-MEL-28 28.4 µM | SK-MEL-2 24.3 µM | SK-MEL-5 17.2 µM | SNB-19 32.5 µM | SNB-75 40.1 µM

CC1CC2(S(=O)(=O)c3ccccc3)ON1CC2S(=O)(=O)c1ccccc1 (centres undefined)
inactive: 786-0 > 100 µM | A549 > 100 µM | ACHN > 100 µM | CAKI-1 > 100 µM | K562 > 100 µM | KM-20L2 > 100 µM | M14 > 100 µM | MOLT-4 > 100 µM | Malme-3M > 100 µM | OVCAR-5 > 100 µM | SK-MEL-28 > 100 µM | SK-MEL-2 > 100 µM | SNB-19 > 100 µM | SNB-75 > 100 µM

CCCC(=O)c1c(NOC2OCC(OC(C)=O)C(OC(C)=O)C2OC(C)=O)nc(OC)n(C)c1=O (centres undefined)
inactive: 786-0 > 100 µM | A498 > 100 µM | A549 > 100 µM | ACHN > 100 µM | CAKI-1 > 100 µM | HOP-92 > 100 µM | K562 17.4 µM | KM-20L2 > 100 µM | M14 > 100 µM | MOLT-4 > 100 µM | Malme-3M > 100 µM | OVCAR-5 > 100 µM | SK-MEL-28 > 100 µM | SK-MEL-5 > 100 µM | SNB-19 > 100 µM | SNB-75 > 100 µM

O=C1OI(C#Cc2ccccc2)c2ccccc21
inactive: 786-0 3.11 µM | A498 4.57 µM | A549 8.65 µM | ACHN 2.18 µM | BT-549 2.88 µM | CAKI-1 2.61 µM | HOP-92 1.88 µM | K562 2.15 µM | M14 4.38 µM | MDA-N 4.16 µM | MOLT-4 1.63 µM | Malme-3M 1.53 µM | OVCAR-5 5.82 µM | PC-3 4.54 µM | SK-MEL-28 5.48 µM | SK-MEL-2 11.7 µM | SK-MEL-5 2.19 µM | SNB-19 7.29 µM | SNB-75 3.89 µM
